# Measured values from patent publication US20250135022A1, “METHODS FOR THE USE OF A B7-H3 ANTIBODY-DRUG CONJUGATE IN COMBINATION WITH A PD-1 X CTLA-4 BISPECIFIC MOLECULE” (MACROGENICS, INC., priority 2022, published 2025).
# Legend:
# Calu-6 lung cancer cells = assay: Anti-tumor activity against subcutaneously implanted Calu-6 xenograft in SCID CES1c-KO mouse model; type: in vivo, SCID CES1c-KO mice; parameters: key to Anti-Tumor Activity: Highly Active: A T/C<10% is considered highly active; Active: a T/C≤42% is the minimum level of anti-tumor activity; Inactive: a T/C value of >42% is inactive
# Procedure: In brief, ˜5×10^6 tumor cells (suspended in 1:1 media and MATRIGEL®) were subcutaneously implanted into the flank of female SCID CES1c-KO mice (Charles River Laboratories). When tumors had reached a volume of approximately 50-180 mm^3 (average 105 mm^3) on day 16, the mice were randomized and MGC018 or control vehicle were administered intravenously. In these studies, mice were administered either a single dose (1 mg/kg or 3 mg/kg, QW×1) of MGC018 or a fractionated dose of MGC018 (0.3 mg/kg or 1 mg/kg) once a week for 4 weeks (QW×4W). Vehicle was administered as a control on day 16. Tumors were measured twice weekly by orthogonal measurements with electronic calipers, with tumor volumes calculated as: (length×width×height)/2. The tumor volume (relative to control) was determined (“T/C”). A finding that the tumor volume of treated animals had decreased to ≤5 mm^3 during the study period was considered to denote a Complete Regression (“CR”) and a Partial Regression (“PR”) was defined when tumors were reduced by 50% or greater from day of dosing at any point during the study.
# [1] = test system: MDA-MB-468 triple negative breast cancer cells; assay: Anti-tumor activity against subcutaneously implanted MDA-MB-468 xenograft in SCID CES1c-KO mouse model; type: in vivo, SCID CES1c-KO mice; parameters: key to Anti-Tumor Activity: Highly Active: A T/C<10% is considered highly active; Active: a T/C≤42% is the minimum level of anti-tumor activity; Inactive: a T/C value of >42% is inactive
# Procedure: In brief, ˜5×10^6 tumor cells (suspended in 1:1 media and MATRIGEL®) were subcutaneously implanted into the flank of female SCID CES1c-KO mice (Charles River Laboratories). When tumors had reached a volume of approximately 45-135 mm^3 (average 73 mm^3) on day 54, the mice were randomized and MGC018 or control vehicle were administered intravenously. In these studies, mice were administered either a single dose (1 mg/kg or 3 mg/kg, QW×1) of MGC018 or a fractionated dose of MGC018 (0.3 mg/kg or 1 mg/kg) once a week for 4 weeks (QW×4W). Vehicle was administered as a control on day 54. Tumors were measured twice weekly by orthogonal measurements with electronic calipers, with tumor volumes calculated as: (length×width×height)/2. The tumor volume (relative to control) was determined (“T/C”). A finding that the tumor volume of treated animals had decreased to ≤5 mm^3 during the study period was considered to denote a Complete Regression (“CR”) and a Partial Regression (“PR”) was defined when tumors were reduced by 50% or greater from day of dosing at any point during the study.
# [2] = 0.3 mg/kg, QW × 4W, intravenous
# [3] = fractionated 0.3 and 1 mg/kg QW×4W vs single 1 or 3 mg/kg QW×1
substance,measurement,setting,value
"MGC018: B7-H3-ADC: Light and Heavy Chain of anti-B7-H3 hmAb-A (SEQ ID NO:19, 20) conjugated via maleimide, valine-citrulline, para-aminobenzyloxycarbonyl linker to seco-DUBA payload",% T/C at Day 50,Calu-6 lung cancer cells; [2],61%
same,Anti-Tumor Activity,Calu-6 lung cancer cells; [2],Inactive
same,CR (complete regression),Calu-6 lung cancer cells; [2],0/6
same,PR (partial regression),Calu-6 lung cancer cells; [2],0/6
same,% T/C at Day 50,"Calu-6 lung cancer cells; 1 mg/kg, QW × 1, intravenous",49%
same,Anti-Tumor Activity,"Calu-6 lung cancer cells; 1 mg/kg, QW × 1, intravenous",Inactive
same,CR (complete regression),"Calu-6 lung cancer cells; 1 mg/kg, QW × 1, intravenous",0/6
same,PR (partial regression),"Calu-6 lung cancer cells; 1 mg/kg, QW × 1, intravenous",0/6
same,% T/C at Day 50,"Calu-6 lung cancer cells; 1 mg/kg, QW × 4W, intravenous",17%
same,Anti-Tumor Activity,"Calu-6 lung cancer cells; 1 mg/kg, QW × 4W, intravenous",Active
same,CR (complete regression),"Calu-6 lung cancer cells; 1 mg/kg, QW × 4W, intravenous",0/6
same,PR (partial regression),"Calu-6 lung cancer cells; 1 mg/kg, QW × 4W, intravenous",0/6
same,% T/C at Day 50,"Calu-6 lung cancer cells; 3 mg/kg, QW × 1, intravenous",25%
same,Anti-Tumor Activity,"Calu-6 lung cancer cells; 3 mg/kg, QW × 1, intravenous",Active
same,CR (complete regression),"Calu-6 lung cancer cells; 3 mg/kg, QW × 1, intravenous",0/6
same,PR (partial regression),"Calu-6 lung cancer cells; 3 mg/kg, QW × 1, intravenous",0/6
same,anti-tumor activity of fractionated dose compared with single dose,Calu-6 lung cancer cells; [3],near equivalent anti-tumor activity
same,% T/C at Day 70,[1]; [2],64%
same,Anti-Tumor Activity,[1]; [2],Inactive
same,CR (complete regression),[1]; [2],0/5
same,PR (partial regression),[1]; [2],2/5
same,% T/C at Day 70,"[1]; 1 mg/kg, QW × 1, intravenous",26%
same,Anti-Tumor Activity,"[1]; 1 mg/kg, QW × 1, intravenous",Active
same,CR (complete regression),"[1]; 1 mg/kg, QW × 1, intravenous",0/5
same,PR (partial regression),"[1]; 1 mg/kg, QW × 1, intravenous",4/5
same,% T/C at Day 70,"[1]; 1 mg/kg, QW × 4W, intravenous",22%
same,Anti-Tumor Activity,"[1]; 1 mg/kg, QW × 4W, intravenous",Active
same,CR (complete regression),"[1]; 1 mg/kg, QW × 4W, intravenous",3/5
same,PR (partial regression),"[1]; 1 mg/kg, QW × 4W, intravenous",5/5
same,% T/C at Day 70,"[1]; 3 mg/kg, QW × 1, intravenous",12%
same,Anti-Tumor Activity,"[1]; 3 mg/kg, QW × 1, intravenous",Active
same,CR (complete regression),"[1]; 3 mg/kg, QW × 1, intravenous",5/5
same,PR (partial regression),"[1]; 3 mg/kg, QW × 1, intravenous",5/5
same,anti-tumor activity of fractionated dose compared with single dose,[1]; [3],near equivalent anti-tumor activity
